Patent US20230085307A1, “PYRIDAZINONE COMPOUND AND HERBICIDE” (NISSAN CHEMICAL CORPORATION, priority 2019, published 2023)

Columns and labels:
late watergrass = assay: Test Example 2: herbicidal activity, application during weed generation under submerged conditions (Table 17, symbol A); type: in vivo, late watergrass (Echinochloa oryzicola); details: AAH 320 g/ha; application during weed generation, submerged conditions
Description: (§1) [Test Example 2] Herbicidal Activity Test by Application during Weed Generation under Submerged Conditions After alluvial soil was placed into 1/10000 are of Wagner pot, water was poured and mixed to form a submerged condition having a water depth of 4 cm. Seeds of late watergrass, Japanese bulrush, and oval-leafed pondweed were sowed in a mixed manner in the aforementioned pot, and the pot was placed in a greenhouse at 25° C. to 30° C. for growth of the plants. When late watergrass, Japanese bulrush, and oval-leafed pondweed were grown to one leaf stage to two leaf stage, the emulsion agent of the compound of the present invention prepared according to Formulation Example 2 was diluted with water so as to achieve a predetermined herbicide amount, and the diluted emulsion agent was applied to the surface of the water. Three weeks after the herbicide application, the effect of the herbicide on each plant was evaluated according to the criteria of Test Example 1.

Japanese bulrush = assay: Test Example 2: herbicidal activity, application during weed generation under submerged conditions (Table 17, symbol B); type: in vivo, Japanese bulrush (Schoenoplectus juncoides); details: AAH 320 g/ha; application during weed generation, submerged conditions
Description: as §1

oval-leafed pondweed = assay: Test Example 2: herbicidal activity, application during weed generation under submerged conditions (Table 17, symbol C); type: in vivo, oval-leafed pondweed (Monochoria vaginalis); details: AAH 320 g/ha; application during weed generation, submerged conditions
Description: as §1

barnyard grass [1] = assay: Test Example 3: herbicidal effect by foliage application, Wagner pot (Table 18, symbol H); type: in vivo, barnyard grass (Echinochloa crus-galli)
Procedure, shortened: (§2)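 Plants were sown in alluvial soil held under 0.1–0.5 cm standing water and grown 14 days in a greenhouse at 25–30 °C. An emulsifiable formulation, water-diluted to the set dose, was then sprayed onto the foliage, and effects were scored three weeks later using previously defined criteria.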

Chinese sprangletop = assay: Test Example 3: herbicidal effect by foliage application, Wagner pot (Table 18, symbol D); type: in vivo, chinese sprangletop (Leptochloa chinensis)
Procedure, shortened: as §2

rice flat sedge = assay: Test Example 3: herbicidal effect by foliage application, Wagner pot (Table 18, symbol E); type: in vivo, rice flat sedge (Cyperus iria)
Procedure, shortened: as §2

southern crabgrass [2] = assay: Test Example 5: herbicidal effect by foliage application, plastic box (Table 20, symbol F); type: in vivo, southern crabgrass (Digitaria ciliaris); details: 320 g/ha
Procedure, shortened: (§3)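 Plants sown in sterilized diluvial soil and grown 14 days in a greenhouse at 25° C to 30° C, then sprayed on the foliage with the compound's emulsion diluted in water to a predetermined herbicide amount. Injury to weeds and crops scored three weeks after application on a visual rating scale.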

green foxtail [3] = assay: Test Example 5: herbicidal effect by foliage application, plastic box (Table 20, symbol G); type: in vivo, green foxtail (Setaria viridis); details: 320 g/ha
Procedure, shortened: as §3

barnyard grass [4] = assay: Test Example 5: herbicidal effect by foliage application, plastic box (Table 20, symbol H); type: in vivo, barnyard grass (Echinochloa crus-galli); details: 320 g/ha
Procedure, shortened: as §3

wild oat = assay: Test Example 5: herbicidal effect by foliage application, plastic box (Table 20, symbol I); type: in vivo, wild oat (Avena fatua); details: foliage application, 320 g/ha, three weeks after application
Procedure, shortened: as §3

blackgrass = assay: Test Example 5: herbicidal effect by foliage application, plastic box (Table 20, symbol J); type: in vivo, blackgrass (Alopecurus myosuroides); details: foliage application, 320 g/ha, three weeks after application
Procedure, shortened: as §3

Italian ryegrass = assay: Test Example 5: herbicidal effect by foliage application, plastic box (Table 20, symbol K); type: in vivo, Italian ryegrass (Lolium multiflorum); details: foliage application, 320 g/ha, three weeks after application
Procedure, shortened: as §3

windgrass = assay: Test Example 5: herbicidal effect by foliage application, plastic box (Table 20, symbol L); type: in vivo, windgrass (Apera spica-venti); details: foliage application, 320 g/ha, three weeks after application
Procedure, shortened: as §3

velvetleaf [5] = assay: Test Example 5: herbicidal effect by foliage application, plastic box (Table 20, symbol M); type: in vivo, velvetleaf (Abutilon theophrasti); details: 320 g/ha
Procedure, shortened: as §3

redroot pigweed [6] = assay: Test Example 5: herbicidal effect by foliage application, plastic box (Table 20, symbol N); type: in vivo, redroot pigweed (Amaranthus retroflexus); details: 320 g/ha
Procedure, shortened: as §3

lambsquarters [7] = assay: Test Example 5: herbicidal effect by foliage application, plastic box (Table 20, symbol O); type: in vivo, lambsquarters (Chenopodium album); details: 320 g/ha
Procedure, shortened: as §3

chickweed = assay: Test Example 5: herbicidal effect by foliage application, plastic box (Table 20, symbol P); type: in vivo, common chickweed (Stellaria media); details: foliage application, 320 g/ha, three weeks after application
Procedure, shortened: as §3

persian speedwell = assay: Test Example 5: herbicidal effect by foliage application, plastic box (Table 20, symbol R); type: in vivo, Persian speedwell (Veronica persica); details: foliage application, 320 g/ha, three weeks after application
Procedure, shortened: as §3

southern crabgrass [8] = assay: Test Example 4: herbicidal effect by soil treatment (Table 19, symbol F); type: in vivo, southern crabgrass (Digitaria ciliaris); details: amount of applied herbicide 320 g/ha
Procedure, shortened: (§4)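 Seeds were sown in sterilized diluvial soil and covered with about 1.5 cm of soil. An emulsion formulation diluted with water to a predetermined herbicide amount was sprayed evenly onto the soil surface. Plants grew in a greenhouse at 25° C. to 30° C., and the effect was scored three weeks after application using criteria from an earlier test.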

green foxtail [9] = assay: Test Example 4: herbicidal effect by soil treatment (Table 19, symbol G); type: in vivo, green foxtail (Setaria viridis); details: amount of applied herbicide 320 g/ha
Procedure, shortened: as §4

barnyard grass [10] = assay: Test Example 4: herbicidal effect by soil treatment (Table 19, symbol H); type: in vivo, barnyard grass (Echinochloa crus-galli); details: amount of applied herbicide 320 g/ha
Procedure, shortened: as §4

velvetleaf [11] = assay: Test Example 4: herbicidal effect by soil treatment (Table 19, symbol M); type: in vivo, velvetleaf (Abutilon theophrasti); details: amount of applied herbicide 320 g/ha
Procedure, shortened: as §4

redroot pigweed [12] = assay: Test Example 4: herbicidal effect by soil treatment (Table 19, symbol N); type: in vivo, redroot pigweed (Amaranthus retroflexus); details: amount of applied herbicide 320 g/ha
Procedure, shortened: as §4

lambsquarters [13] = assay: Test Example 4: herbicidal effect by soil treatment (Table 19, symbol O); type: in vivo, lambsquarters (Chenopodium album); details: amount of applied herbicide 320 g/ha
Procedure, shortened: as §4

[14] = amount of applied herbicide 320 g/ha
[15] = foliage application, three weeks after application
[16] = foliage application after 14-day growth, evaluated three weeks after application

With `CCCC(=O)Oc1c(C)nn(C)c(=O)c1-c1c(-c2ccc(Cl)cc2)sc2cc(F)ccc12` [3-016] the “herbicidal effect rating, A: late watergrass” value (late watergrass) was 3 (Herbicidal rate of 40% or more and less than 70%), the “herbicidal effect rating, B: Japanese bulrush” value (Japanese bulrush) was 0 (Herbicidal rate of 5% or less (almost no effect)) and the “herbicidal effect rating, C: oval-leafed pondweed” value (oval-leafed pondweed) was 0 (Herbicidal rate of 5% or less (almost no effect)). The “herbicidal effect on H: barnyard grass” value (barnyard grass [1]; [14]) was 3 (Herbicidal rate of 40% or more and less than 70%), the “herbicidal effect on D: Chinese sprangletop” value (Chinese sprangletop; [14]) was 4 (Herbicidal rate of 70% or more and less than 90%) and the “herbicidal effect on E: rice flat sedge” value (rice flat sedge; [14]) was 4 (Herbicidal rate of 70% or more and less than 90%). The “F: southern crabgrass, herbicidal effect grade” value (southern crabgrass [2]; [15]) was 0 (Herbicidal rate of 5% or less (almost no effect)), the “G: green foxtail, herbicidal effect grade” value (green foxtail [3]; [15]) was 0 (Herbicidal rate of 5% or less (almost no effect)) and the “H: barnyard grass, herbicidal effect grade” value (barnyard grass [4]; [15]) was 0 (Herbicidal rate of 5% or less (almost no effect)). The “I: wild oat, herbicidal effect grade” value (wild oat) was 1 (Herbicidal rate of 5% or more and less than 20%), the “J: blackgrass, herbicidal effect grade” value (blackgrass) was 0 (Herbicidal rate of 5% or less (almost no effect)) and the “K: Italian ryegrass, herbicidal effect grade” value (Italian ryegrass) was 0 (Herbicidal rate of 5% or less (almost no effect)). The “L: windgrass, herbicidal effect grade” value (windgrass) was 5 (Herbicidal rate of 90% or more (almost completely withered)), the “M: velvetleaf, herbicidal effect grade” value (velvetleaf [5]; [15]) was 3 (Herbicidal rate of 40% or more and less than 70%) and the “N: redroot pigweed, herbicidal effect grade” value (redroot pigweed [6]; [15]) was 1 (Herbicidal rate of 5% or more and less than 20%). The “O: lambsquarters, herbicidal effect grade” value (lambsquarters [7]; [15]) was 3 (Herbicidal rate of 40% or more and less than 70%), the “P: chickweed, herbicidal effect grade” value (chickweed) was 3 (Herbicidal rate of 40% or more and less than 70%) and the “R: persian speedwell, herbicidal effect grade” value (persian speedwell) was 4 (Herbicidal rate of 70% or more and less than 90%).

For `COc1ccc2c(-c3c(O)c(C)nn(C)c3=O)c(-c3ccc(OC(F)(F)F)cc3)sc2c1` [3-170], the “herbicidal effect rating, A: late watergrass” value (late watergrass) was 2 (Herbicidal rate of 20% or more and less than 40%), the “herbicidal effect rating, B: Japanese bulrush” value (Japanese bulrush) was 0 (Herbicidal rate of 5% or less (almost no effect)) and the “herbicidal effect rating, C: oval-leafed pondweed” value (oval-leafed pondweed) was 0 (Herbicidal rate of 5% or less (almost no effect)). For the same molecule, the “herbicidal effect on barnyard grass (H)” value (barnyard grass [1]; 320 g/ha) was 3 (Herbicidal rate of 40% or more and less than 70%), the “herbicidal effect on Chinese sprangletop (D)” value (Chinese sprangletop; 320 g/ha) was 0 (Herbicidal rate of 5% or less (almost no effect)) and the “herbicidal effect on rice flat sedge (E)” value (rice flat sedge; 320 g/ha) was 0 (Herbicidal rate of 5% or less (almost no effect)). For the same molecule, the “Herbicidal effect by soil treatment, F: southern crabgrass” value (southern crabgrass [8]) was 0 (Herbicidal rate of 5% or less (almost no effect)), the “Herbicidal effect by soil treatment, G: green foxtail” value (green foxtail [9]) was 0 (Herbicidal rate of 5% or less (almost no effect)) and the “Herbicidal effect by soil treatment, H: barnyard grass” value (barnyard grass [10]) was 0 (Herbicidal rate of 5% or less (almost no effect)). The “Herbicidal effect by soil treatment, M: velvetleaf” value (velvetleaf [11]) was 0 (Herbicidal rate of 5% or less (almost no effect)), the “Herbicidal effect by soil treatment, N: redroot pigweed” value (redroot pigweed [12]) was 4 (Herbicidal rate of 70% or more and less than 90%) and the “Herbicidal effect by soil treatment, O: lambsquarters” value (lambsquarters [13]) was 1 (Herbicidal rate of 5% or more and less than 20%). The “herbicidal effect on F: southern crabgrass (evaluation grade 0-5)” value (southern crabgrass [2]; [16]) was 0 (Herbicidal rate of 5% or less (almost no effect)), the “herbicidal effect on G: green foxtail (evaluation grade 0-5)” value (green foxtail [3]; [16]) was 0 (Herbicidal rate of 5% or less (almost no effect)) and the “herbicidal effect on H: barnyard grass (evaluation grade 0-5)” value (barnyard grass [4]; [16]) was 0 (Herbicidal rate of 5% or less (almost no effect)). For the same molecule, the “herbicidal effect on M: velvetleaf (evaluation grade 0-5)” value (velvetleaf [5]; [16]) was 3 (Herbicidal rate of 40% or more and less than 70%), the “herbicidal effect on N: redroot pigweed (evaluation grade 0-5)” value (redroot pigweed [6]; [16]) was 4 (Herbicidal rate of 70% or more and less than 90%) and the “herbicidal effect on O: lambsquarters (evaluation grade 0-5)” value (lambsquarters [7]; [16]) was 5 (Herbicidal rate of 90% or more (almost completely withered)).
